# Assay results as given in CN116283752A (priority 2023, dated 2023).
# Read-outs that look alike come from different tables or passages of the source.
# What was measured:
# Format in all cases: cell-based
# [1] = test system: autoluminescent Mycobacterium tuberculosis H37Ra [自主发光Mtb H37Ra]; experiment: microbe, parasite or virus in culture
# [2] = test system: Mycobacterium tuberculosis H37Ra [结核分枝杆菌H37Ra]
# [3] = test system: wild-type Mycobacterium tuberculosis H37Rv [野生型结核分枝杆菌(H37Rv)]; experiment: microbe, parasite or virus in culture; details: Alamar Blue, 37℃, 10 days + 1 day; for MIC: compound alone; for MIC + TB47: with TB47 0.003 μg/mL
# [4] = Mycobacterium tuberculosis, H37RA, read-out: MIC
# [5] = Mycobacterium tuberculosis, read-out: MIC
Compound,"MIC [1, 4] [µg/mL]",MIC [1] [µg/mL],MIC in synergy with TB47 [2] [µg/mL],"MIC [3, 5] [µg/mL]",MIC + TB47 [3] [µg/mL],MIC [3] [µg/mL]
"O=C(Nc1cncc(C(F)(F)F)c1)c1cc(Cl)ccc1O [compound 5, 5-氯-2-羟基-N-(5-三氟甲基-3-吡啶基)-苯甲酰胺]",5,–,–,–,–,–
"O=C(Nc1cc(Cl)nc(Cl)c1)c1cc(Cl)ccc1O [compound 6, 5-氯-N-(2,6-二氯-4-吡啶基)-2-羟基苯甲酰胺]",1.25,1.25,0.625,–,–,–
"O=C(Nc1nc2ccc(OC(F)(F)F)cc2s1)c1cc(Cl)ccc1O [compound 17, 5-氯-2-羟基-N-(6-三氟甲氧基-2-苯并噻唑基)-苯甲酰胺]",10,–,–,–,–,–
"O=C(Nc1cc(Cl)ncn1)c1cc(Cl)ccc1O [compound 14, 5-氯-N-(6-氯-4-嘧啶基)-2-羟基苯甲酰胺]",2.5,–,–,–,–,–
"O=C(Nc1ccc(Cl)nc1Cl)c1cc(Cl)ccc1O [化合物8, 5-氯-N-(2,6-二氯-3-吡啶基)-2-羟基苯甲酰胺]",2.5,2.5,0.625,4,0.25,–
"O=C(Nc1cc(C(F)(F)F)ncn1)c1cc(Cl)ccc1O [compound 16, 5-氯-2-羟基-N-(6-三氟甲基-4-嘧啶基)-苯甲酰胺]",2.5,2.5,0.625,–,–,–
"O=C(Nc1ccc(C(F)(F)F)nc1)c1cc(Cl)ccc1O [化合物3, 5-氯-2-羟基-N-(6-三氟甲基-3-吡啶基)-苯甲酰胺]",4,4,0.25,4,0.5,–
"O=C(Nc1ncc(Cl)cn1)c1cc(Cl)ccc1O [compound 12, 5-氯-N-(5-氯-2-嘧啶基)-2-羟基苯甲酰胺]",5,–,–,–,–,–
"O=C(Nc1ccc(Cl)cn1)c1cc(Cl)ccc1O [化合物1, 5-氯-N-(5-氯-2-吡啶基)-2-羟基苯甲酰胺]",5,–,–,–,–,–
"O=C(Nc1cnc(C(F)(F)F)cn1)c1cc(Cl)ccc1O [化合物11, 5-氯-2-羟基-N-(5-三氟甲基-2-吡嗪基)-苯甲酰胺]",1.25,1.25,0.625,2,< 0.125,2
"O=C(Nc1cnc(Cl)c(Cl)c1)c1cc(Cl)ccc1O [化合物7, 5-氯-N-(5,6-二氯-3-吡啶基)-2-羟基苯甲酰胺]",2.5,–,–,4,0.25,–
"O=C(Nc1ncc(Cl)s1)c1cc(Cl)ccc1O [compound 21, 5-氯-N-(5-氯-2-噻唑基)-2-羟基苯甲酰胺]",5,–,–,–,–,–
"O=C(Nc1nnc(C(F)(F)F)s1)c1cc(Cl)ccc1O [compound 20, 5-氯-2-羟基-N-[5-三氟甲基-2-(1,3,4-噻二唑基)]-苯甲酰胺]",10,–,–,–,–,–
"O=C(Nc1ccc(Cl)nn1)c1cc(Cl)ccc1O [compound 19, 5-氯-N-(6-氯-3-哒嗪基)-2-羟基苯甲酰胺]",10,–,–,–,–,–
"O=C(Nc1cncc(Cl)n1)c1cc(Cl)ccc1O [化合物10, 5-氯-N-(6-氯-2-吡嗪基)-2-羟基苯甲酰胺]",2.5,–,–,4,0.25,–
"O=C(Nc1ccc(C(F)(F)F)cn1)c1cc(Cl)ccc1O [化合物2, 5-氯-2-羟基-N-(5-三氟甲基-2-吡啶基)-苯甲酰胺]",1.25,1.25,–,–,–,–
"O=C(Nc1ccnc(C(F)(F)F)c1)c1cc(Cl)ccc1O [化合物4, 5-氯-2-羟基-N-(2-三氟甲基-4-吡啶基)-苯甲酰胺]",1.25,1.25,0.625,2,< 0.125,2
"O=C(Nc1cnc(Cl)cn1)c1cc(Cl)ccc1O [compound 9, 5-氯-N-(5-氯-2-吡嗪基)-2-羟基苯甲酰胺]",4,–,–,–,–,–
"O=C(Nc1cnc(Cl)nc1)c1cc(Cl)ccc1O [compound 13, 5-氯-N-(2-氯-5-嘧啶基)-2-羟基苯甲酰胺]",5,–,–,–,–,–
"O=C(Nc1nccc(C(F)(F)F)n1)c1cc(Cl)ccc1O [compound 15, 5-氯-2-羟基-N-(4-三氟甲基-2-嘧啶基)-苯甲酰胺]",5,–,–,–,–,–
"O=C(Nc1nc2ccc(C(F)(F)F)cc2s1)c1cc(Cl)ccc1O [化合物18, 5-氯-2-羟基-N-(6-三氟甲基-2-苯并噻唑基)-苯甲酰胺]",5,5,0.625,–,–,–
